The record followed here is patent US12569482B2, “Methods and compositions for treating idiopathic pulmonary fibrosis” (priority 2018, dated 2026).

The test system of the test is bleomycin-induced lung fibrosis. In words: Bleomycin induced IPF mouse model, Example 1 (oral nintedanib or fluconazole). Format: in vivo, C57BL/6 mice. The settings on record: nintedanib 60 mg/kg. How it is done:
Forty male C57BL/6 mice (Nanjing Biomedical Research Institute of Nanjing University) were randomly divided into two groups on Day 1, 10 animals for one group (referred to as Control group or Group 1) and 30 for the other. The animals in the Control group were administered intratracheally with PBS at a dose of 2 mL/kg while the others were administered intratracheally with bleomycin (Cat #HY-17565, MCE) at a dose of 0.66 mg/kg.
On Day 5, the mice with bleomycin treatment were divided into three groups at random (referred to as Group 2-4, n=10), and orally administered with vehicle (0.5% Methyl cellulose), nintedanib (Kangmanlin Co. Ltd., prepared in 0.5% Methyl cellulose with a final concentration of 6.0 mg/mL) and fluconazole (Kangmanlin Co. Ltd., prepared in 0.5% Methyl cellulose with a final concentration of 7.0 mg/mL) at daily doses of 10 mL/kg, 60 mg/kg and 70 mg/kg, respectively. The mice in the Control group was administered with vehicle (0.5% Methyl cellulose) at a daily dose of 10 mL/kg. Mice body weights were measured and recorded on Day 1, 5, 12, 19 and 25.
Two hours post drug administration on Day 25, all animals were anaesthetized with pentobarbital (i.p., 65 mg/kg). Blood samples were collected from orbital vein, put in tubes pre-coated with EDTA-K2 (KANG JIAN, Cat #KJ202), centrifuged at 4000×g for 10 minutes at 4° C. and then stored at −80° C. for determination of plasma drug levels. Then, the trachea was exposed, and bronchoalveolar lavage fluid (BALF) was collected from each mouse by injecting 0.3 mL of saline into trachea close to the larynx for three times. After BALF collection, mice were perfused with saline, and all four lung lobes were collected from each mouse, fixed in 10% NBF solution, embedded in paraffin and cut into 5 μm-thick sections. The sections were de-paraffinized with xylene and ethanol and subject to Haematoxylin-Eosin, Masson Trichrome and α-SMA IHC staining.
The bronchoalveolar lavage fluid of 20 μL was mixed with 20 μL of trypan blue to determine the cell number. Then, the cells in the BALF were concentrated using a Cytospinat at 1,000 rpm for 5 minutes, smeared on slides and then stained with Diff-Quik stain. Cell types (alveolar macrophages, neutrophils, or lymphocytes) were determined by counting at least 200 cells using a standard hemocytometer. The rest BALFs were centrifuged and supernatants were collected and stored at −80° C. for soluble collagen analysis.
The Haematoxylin-Eosin staining was used to identify and quantitate the inflammatory cells in the tissues, and the total inflammation area was calculated using the AperioScanScope software.
The sections with Masson Trichrome staining were scored for pulmonary fibrosis according to the modified Ashcroft fibrosis rating criteria in Table 1 below. Each lung lobe was divided into 4 parts according to the distance from the main bronchus, i.e., the upper, upper middle, lower middle and lower parts, which were scored separately and averaged later.
α-SMA is a well characterized marker in fibrosis. Immunohistochemistry staining of α-SMA is often used to characterize and quantitate the tissue fibrosis. Increased staining of α-SMA often reflects accumulation of collagen-producing myofibroblasts. Before α-SMA IHC staining, the de-paraffinized sections were treated with citrate antigen retrieval solution (0.01 N citrate buffer, pH 6.0) at 100° C. for 10 minutes, and then incubated with rabbit polyclonal anti-α-SMA (1:400, ab5694, Abcam) for 1 hour followed by goat anti-rabbit HRP (K4003, Dako). DAB substrate kit (DAB0031, Maixin, Shanghai) was used for chromogenic staining. All sections were further counter-stained with hematoxylin. […] α-SMA staining areas were calculated using the AperioImageScope program.
Statistical analysis was performed using student's T-test, one-way or two-way ANOVA followed by post-hoc Dunnett's test if significant. […] The difference was considered significant when p<0.05. *p<0.05, **p<0.01, ***[…].

Turning to `COC(=O)c1ccc2c(c1)NC(=O)/C2=C(\Nc1ccc(N(C)C(=O)CN2CCN(C)CC2)cc1)c1ccccc1` [nintedanib], the “reduction of lung inflammation area” value (Haematoxylin-Eosin staining, fluconazole 70 mg/kg p.o. daily) was determined as 84%. For the same compound, the “reduction of modified Ashcroft score” value (Masson Trichrome staining, fluconazole 70 mg/kg p.o. daily) came out at 39%. The “anti-IPF activities / fibrosis related endpoint measurements (overall)” value (fluconazole 70 mg/kg daily dose) is on record as “efficacious”. For the same compound, the “total cell number and macrophage/monocyte number in BALF” value (oral daily Day 5-25) is listed as “reduced cell number to some extent”. Also, the BALF collagen levels result (oral daily Day 5-25, fluconazole 70 mg/kg, vs bleomycin + vehicle) is reported as “significantly reduced collagen levels”. Moreover, the “reduction of α-SMA staining area” value (α-SMA IHC, fluconazole 70 mg/kg p.o. daily) was 39%.
